In PubChem BioAssay (NCI):
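How tested: cells in 96-well plates exposed to compound for 48 hours at five concentrations. TGI is the concentration that stops growth completely.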

Experiments:
Assay in all cases: inhibition of tumour cell growth, NCI panel, 48 h
SK-OV-3 ovarian = test system: SK-OV-3 ovarian
SNB-19 CNS = test system: SNB-19 CNS
SF-539 CNS = test system: SF-539 CNS
HOP-62 NSCLC = test system: HOP-62 NSCLC
OVCAR-8 ovarian = test system: OVCAR-8 ovarian
SW-620 colon = test system: SW-620 colon
KM20L2 colon = test system: KM20L2 colon
CCRF-CEM leukemia = test system: CCRF-CEM leukemia
NCI-H522 lung = test system: NCI-H522 lung
A549 NSCLC = test system: A549 NSCLC
OVCAR-4 ovarian = test system: OVCAR-4 ovarian
KM12 colon = test system: KM12 colon
NCI-H23 lung = test system: NCI-H23 lung
A498 renal = test system: A498 renal
UO-31 renal = test system: UO-31 renal
M14 melanoma = test system: M14 melanoma
NCI-H460 lung = test system: NCI-H460 lung
M19-MEL melanoma = test system: M19-MEL melanoma
LXFL 529 NSCLC = test system: LXFL 529 NSCLC
MALME-3M melanoma = test system: MALME-3M melanoma
HCT-116 colon = test system: HCT-116 colon
UACC-62 melanoma = test system: UACC-62 melanoma
SF-268 CNS = test system: SF-268 CNS
HOP-18 NSCLC = test system: HOP-18 NSCLC
RXF 393 renal = test system: RXF 393 renal
IGROV1 ovarian = test system: IGROV1 ovarian
CAKI-1 renal = test system: CAKI-1 renal
HCT-15 colon = test system: HCT-15 colon
786-0 renal = test system: 786-0 renal
SF-295 CNS = test system: SF-295 CNS
TK-10 renal = test system: TK-10 renal
COLO 205 colon = test system: COLO 205 colon
MOLT-4 leukemia = test system: MOLT-4 leukemia
SNB-75 CNS = test system: SNB-75 CNS
SR leukemia = test system: SR leukemia
SK-MEL-5 melanoma = test system: SK-MEL-5 melanoma
SK-MEL-28 melanoma = test system: SK-MEL-28 melanoma
HOP-92 NSCLC = test system: HOP-92 NSCLC
ACHN renal = test system: ACHN renal
SK-MEL-2 melanoma = test system: SK-MEL-2 melanoma
U251 CNS = test system: U251 CNS
DMS 114 small cell lung = test system: DMS 114 small cell lung
K-562 leukemia = test system: K-562 leukemia
DLD-1 colon = test system: DLD-1 colon
OVCAR-5 ovarian = test system: OVCAR-5 ovarian
MDA-MB-435 = test system: MDA-MB-435
HL-60(TB) leukemia = test system: HL-60(TB) leukemia
EKVX NSCLC = test system: EKVX NSCLC
MDA-N = test system: MDA-N
LOX IMVI melanoma = test system: LOX IMVI melanoma
DU-145 prostate = test system: DU-145 prostate
SN12C renal = test system: SN12C renal
HS 578T breast = test system: HS 578T breast
HT29 colon = test system: HT29 colon
RPMI-8226 leukemia = test system: RPMI-8226 leukemia
PC-3 prostate = test system: PC-3 prostate
NCI/ADR-RES ovarian = test system: NCI/ADR-RES ovarian
T-47D breast = test system: T-47D breast
UACC-257 melanoma = test system: UACC-257 melanoma
OVCAR-3 ovarian = test system: OVCAR-3 ovarian
MCF7 breast = test system: MCF7 breast
BT-549 breast = test system: BT-549 breast
MDA-MB-231 breast = test system: MDA-MB-231 breast
HCC-2998 colon = test system: HCC-2998 colon

CN(C)[C@@H]1C(=O)C(C(N)=O)=C(O)[C@@]2(O)C(=O)C3=C(O)c4c(O)cccc4C[C@H]3C[C@@H]12
TGI (SK-OV-3 ovarian): 3.96 µM | TGI (SNB-19 CNS): 4.47 µM | TGI (SF-539 CNS): 3.84 µM | TGI (HOP-62 NSCLC): 4.21 µM | TGI (OVCAR-8 ovarian): 9.52 µM | TGI (SW-620 colon): 9.84 µM | TGI (KM20L2 colon): 6.18 µM | TGI (CCRF-CEM leukemia): 5.65 µM | TGI (NCI-H522 lung): 4.29 µM | TGI (A549 NSCLC): 5.52 µM | TGI (OVCAR-4 ovarian): 3.26 µM | TGI (KM12 colon): 6.54 µM | TGI (NCI-H23 lung): 4.27 µM | TGI (A498 renal): 4.56 µM | TGI (UO-31 renal): 4.08 µM | TGI (M14 melanoma): 3.87 µM | TGI (NCI-H460 lung): 6.48 µM | TGI (M19-MEL melanoma): 3.12 µM | TGI (LXFL 529 NSCLC): 3.88 µM | TGI (MALME-3M melanoma): 2.92 µM | TGI (HCT-116 colon): 3.28 µM | TGI (UACC-62 melanoma): 3.14 µM | TGI (SF-268 CNS): 3.23 µM | TGI (HOP-18 NSCLC): 3.56 µM | TGI (RXF 393 renal): 3.11 µM | TGI (IGROV1 ovarian): 4.8 µM | TGI (CAKI-1 renal): 4.3 µM | TGI (HCT-15 colon): 22 µM | TGI (786-0 renal): 5.92 µM | TGI (SF-295 CNS): 3.22 µM | TGI (TK-10 renal): 7.53 µM | TGI (COLO 205 colon): 3.25 µM | TGI (MOLT-4 leukemia): 5.55 µM | TGI (SNB-75 CNS): 2.98 µM | TGI (SR leukemia): 6.05 µM | TGI (SK-MEL-5 melanoma): 3.63 µM | TGI (SK-MEL-28 melanoma): 3.19 µM | TGI (HOP-92 NSCLC): 5.19 µM | TGI (ACHN renal): 14.3 µM | TGI (SK-MEL-2 melanoma): 3.31 µM | TGI (U251 CNS): 4.68 µM | TGI (DMS 114 small cell lung): 6.41 µM | TGI (K-562 leukemia): 6.65 µM | TGI (DLD-1 colon): 10.8 µM

CCOC(=O)CC(C)C(C#N)(OP1(=O)OC(c2ccccc2)C(C)N1C)c1ccccc1 (stereo not given)
TGI (SK-OV-3 ovarian): > 100 µM | TGI (SNB-19 CNS): > 100 µM | TGI (SF-539 CNS): > 100 µM | TGI (HOP-62 NSCLC): > 100 µM | TGI (OVCAR-8 ovarian): > 100 µM | TGI (OVCAR-5 ovarian): > 100 µM | TGI (MDA-MB-435): > 100 µM | TGI (SW-620 colon): > 100 µM | TGI (HL-60(TB) leukemia): 78.7 µM | TGI (EKVX NSCLC): > 100 µM | TGI (CCRF-CEM leukemia): > 100 µM | TGI (NCI-H522 lung): > 100 µM | TGI (MDA-N): > 100 µM | TGI (LOX IMVI melanoma): > 100 µM | TGI (A549 NSCLC): > 100 µM | TGI (KM12 colon): > 100 µM | TGI (DU-145 prostate): > 100 µM | TGI (NCI-H23 lung): > 100 µM | TGI (A498 renal): > 100 µM | TGI (UO-31 renal): > 100 µM | TGI (SN12C renal): > 100 µM | TGI (M14 melanoma): > 100 µM | TGI (NCI-H460 lung): > 100 µM | TGI (MALME-3M melanoma): > 100 µM | TGI (HS 578T breast): > 100 µM | TGI (HCT-116 colon): > 100 µM | TGI (HT29 colon): > 100 µM | TGI (UACC-62 melanoma): > 100 µM | TGI (SF-268 CNS): > 100 µM | TGI (RXF 393 renal): > 100 µM | TGI (IGROV1 ovarian): > 100 µM | TGI (RPMI-8226 leukemia): > 100 µM | TGI (PC-3 prostate): > 100 µM | TGI (CAKI-1 renal): > 100 µM | TGI (HCT-15 colon): > 100 µM | TGI (NCI/ADR-RES ovarian): > 100 µM | TGI (786-0 renal): > 100 µM | TGI (SF-295 CNS): > 100 µM | TGI (T-47D breast): > 100 µM | TGI (TK-10 renal): > 100 µM | TGI (UACC-257 melanoma): > 100 µM | TGI (COLO 205 colon): 36.6 µM | TGI (OVCAR-3 ovarian): > 100 µM | TGI (MCF7 breast): > 100 µM | TGI (BT-549 breast): > 100 µM | TGI (MDA-MB-231 breast): > 100 µM | TGI (HCC-2998 colon): > 100 µM | TGI (MOLT-4 leukemia): 73.1 µM | TGI (SR leukemia): > 100 µM | TGI (SK-MEL-5 melanoma): > 100 µM | TGI (SK-MEL-28 melanoma): > 100 µM | TGI (HOP-92 NSCLC): > 100 µM | TGI (ACHN renal): > 100 µM | TGI (SK-MEL-2 melanoma): > 100 µM | TGI (U251 CNS): > 100 µM | TGI (K-562 leukemia): > 100 µM
